Laboratory results as given in ChEMBL document CHEMBL1201862, “PubChem BioAssay data set” (2004).
Structures can show the parent of a compound that is named as a salt. Activity calls are given as the source filed them.

Columns and labels:
P388 = assay: cells; format: functional; settings: Mus musculus
P388/ADR = assay: cells; format: functional; settings: Mus musculus
SN12K1 = assay: cells; format: functional; settings: Homo sapiens
[1] = luciferase reporter signal suppression in cells – H4 neuroglioma cells, luminescence, dose response (AID 1990); format: functional, cell-based
[2] = alpha-synuclein stem-loop luciferase translation blockers – H4 neuroglioma cells, luminescence, confirmation (AID 1988); format: functional, cell-based
[3] = Luminescence Cell-Based Dose Response HTS to Identify Inhibitors of 5'UTR Stem-Loop Driven Prion Protein mRNA Translation in H4 Neuroglioblastoma Cells. [Related pubchem assays: 1827 (Project Summary), 1813 (Primary HTS)]; format: functional
Nonstructural protein 1 = Nonstructural protein 1 (Influenza A virus, UniProt Q194T2); format: functional, Influenza A virus (A/California/07/2009(H1N1))
Sequence of Nonstructural protein 1 (Q194T2 whole entry): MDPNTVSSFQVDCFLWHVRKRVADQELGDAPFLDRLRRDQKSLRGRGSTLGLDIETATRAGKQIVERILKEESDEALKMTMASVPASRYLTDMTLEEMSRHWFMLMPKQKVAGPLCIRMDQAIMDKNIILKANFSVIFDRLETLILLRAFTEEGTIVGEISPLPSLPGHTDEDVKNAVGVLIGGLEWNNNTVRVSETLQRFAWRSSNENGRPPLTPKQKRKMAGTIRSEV

[4] = Luminescence Cell-Based Dose Confirmation HTS to Identify Inhibitors of Platelet Dense Granule Release. [Related pubchem assays: 1663 (Primary HTS), 1678 (Summary of Project)]; format: functional
[5] = target: Luciferin 4-monooxygenase (Photinus pyralis, UniProt P08659); assay: inhibition of purified Photinus pyralis luciferase – biochemical, luminescence, dose response (AID 1891)
Sequence of Luciferin 4-monooxygenase (P08659 whole entry): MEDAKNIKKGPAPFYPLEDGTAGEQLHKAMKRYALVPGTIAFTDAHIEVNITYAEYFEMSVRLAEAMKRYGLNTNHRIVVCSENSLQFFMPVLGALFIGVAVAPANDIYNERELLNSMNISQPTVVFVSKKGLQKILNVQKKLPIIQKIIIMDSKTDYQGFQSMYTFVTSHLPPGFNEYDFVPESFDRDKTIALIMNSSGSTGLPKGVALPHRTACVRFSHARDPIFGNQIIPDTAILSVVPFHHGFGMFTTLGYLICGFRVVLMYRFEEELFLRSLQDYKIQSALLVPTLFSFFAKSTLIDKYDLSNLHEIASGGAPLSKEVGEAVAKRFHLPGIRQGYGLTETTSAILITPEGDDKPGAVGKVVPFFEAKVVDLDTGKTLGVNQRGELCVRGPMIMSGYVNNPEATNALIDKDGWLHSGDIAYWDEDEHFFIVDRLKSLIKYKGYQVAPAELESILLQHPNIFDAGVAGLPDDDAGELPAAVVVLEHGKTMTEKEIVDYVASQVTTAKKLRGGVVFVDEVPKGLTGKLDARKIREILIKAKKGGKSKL

[6] = Luminescence Cell-Based Dose Retest to Confirm Inhibitors of Cancer Stem Cells. [Related pubchem assays (depositor defined):AID2717, AID2721]; format: functional; settings: Homo sapiens
[7] = loss of viability in HepG2 cells – cell-based, CellTiter-Glo, cherry-picked, cytotoxicity control for Shn3 inhibitor project, dose response (AID 624134); format: functional
[8] = non-specific 3'UTR reporter inhibition in Clone20-Shn3RL – cell-based, Renilla luciferase, cherry-picked, counter-screen for Shn3 inhibitor project, dose response (AID 624133); format: functional
[9] = reduction of Shn3 3'UTR-driven luciferase in osteoblasts – cell-based, Clone20 osteoblasts, firefly luciferase, cherry-picked, dose response (AID 624132); format: functional;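 further: firefly luciferase luminescence from reporter carrying the Shn3 3'UTR in osteoblasts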
Cytochrome P450 3A4 [10] = target: T1, Cytochrome P450 3A4 (Homo sapiens, UniProt P08684); settings: Potency
T1 sequence (P08684 whole entry): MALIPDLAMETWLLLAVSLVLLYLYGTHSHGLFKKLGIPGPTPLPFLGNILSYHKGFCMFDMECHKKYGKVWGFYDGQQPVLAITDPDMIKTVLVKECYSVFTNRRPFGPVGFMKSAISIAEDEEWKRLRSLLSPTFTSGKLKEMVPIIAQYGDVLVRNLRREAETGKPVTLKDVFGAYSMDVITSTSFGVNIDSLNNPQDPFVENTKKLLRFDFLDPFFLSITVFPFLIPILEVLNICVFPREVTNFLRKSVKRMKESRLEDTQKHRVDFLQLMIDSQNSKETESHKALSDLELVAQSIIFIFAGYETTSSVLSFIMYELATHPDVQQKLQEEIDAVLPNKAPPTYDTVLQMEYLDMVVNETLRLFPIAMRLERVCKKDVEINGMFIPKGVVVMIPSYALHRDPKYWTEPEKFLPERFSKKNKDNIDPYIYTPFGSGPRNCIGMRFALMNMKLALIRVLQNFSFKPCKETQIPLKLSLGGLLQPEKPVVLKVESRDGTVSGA

Cytochrome P450 3A4 [11] = target: T1, Cytochrome P450 3A4

Compound: CNNCc1ccc(C(=O)NC(C)C)cc1 [PROCARBAZINE HYDROCHLORIDE]
- GI50 (P388): > 500 µM (inactive)
- GI50 (P388/ADR): > 485 µM (inactive)
- GI50 (SN12K1): > 456 µM (inactive)

Compound: CCCCCCn1c(SCC(C)C)nc2c1c(=O)[nH]c(=O)n2C
- EC50 [1]: 15.4 µM (active)
- EC50 [2]: 18.8 µM (active)
- EC50 [3]: > 120 µM (not active)

Compound: Nc1[nH]c(N=NC(=O)c2ccccc2O)c2ccccc12
- IC50 (Nonstructural protein 1): 24.5 µM (active)

Compound: CC(C)(C)c1ccc(OCCON2C(=O)CCC2=O)c(Cl)c1
- EC50 [1]: > 120 µM (not active)
- EC50 [2]: 18.3 µM (active)
- EC50 [3]: 13.6 µM (active)

Compound: COc1cc2cc(C(=O)N3CCN(Cc4ccc5c(c4)OCO5)CC3)[nH]c2cc1OC
- EC50 [4]: > 112 µM (not active)
- EC50 [1]: > 120 µM (not active)
- EC50 [2]: > 120 µM (not active)
- EC50 [5]: > 112 µM (not active)
- EC50 [3]: > 120 µM (not active)

Compound: CC(C)(C)c1cc(CSC(S)=NC2CCS(=O)(=O)C2)c(Br)c(C(C)(C)C)c1 (configuration not stated)
- AC50 [6]: 3.19 µM (active)

Compound: Cc1ccc(S(=O)(=O)Oc2cc(-c3ccccc3)nc3ccccc23)cc1
- GI50 (P388): 1.15 µM (inactive)
- GI50 (P388/ADR): 1.91 µM (inactive)
- GI50 (SN12K1): 1.61 µM (inactive)

Compound: CCCCCCCN1C(Nc2ccccc2)=NC[C@@H]1Cc1ccccc1
- AC50 [7]: 23 µM (active)
- AC50 [8]: 6.34 µM (active)
- AC50 [9]: 4.82 µM (active)

Compound: COC(=O)C(C(=O)OC)C1O[C@@]23COCCC2(C)C3c2ccccc21 (some centres not stated)
- AC50 (Cytochrome P450 3A4 [10]): 3.16 µM (inconclusive)

Compound: O=C(/C=C/c1ccccc1)c1ccc(O)cc1 [4'-HYDROXYCHALCONE]
- AC50 (Cytochrome P450 3A4 [10]): 39.8 µM (inconclusive)

Compound: O=C1C=CC(=O)c2c(O)cccc21 [JUGLONE]
- AC50 (Cytochrome P450 3A4 [10]): 39.8 µM (inconclusive)

Compound: O=S1(=O)C(=C(c2ccccc2)c2ccccc2)S(=O)(=O)c2ccccc21
- GI50 (P388): > 31.6 µM (inactive)
- GI50 (P388/ADR): > 100 µM (inactive)
- GI50 (SN12K1): 28.2 µM (inactive)

Compound: COc1ccccc1OCC(O)Cn1c(=N)n(Cc2ccccc2)c2ccccc21 (configuration not stated)
- AC50 [7]: 22.1 µM (active)
- AC50 [8]: 10.7 µM (active)
- AC50 [9]: 4.01 µM (active)

Compound: O=C1[C@@H]2Cc3c([nH]c4ccccc34)C(c3ccccc3)N2C(=O)CN1C1CCN(Cc2ccccc2)CC1 (some centres not stated)
- IC50 (Nonstructural protein 1): > 100 µM (active)

Compound: CCOC(=O)c1[nH]c(C)c(C(=O)OCc2ccccc2F)c1C
- AC50 [6]: 0.633 µM (active)

Compound: CCCCc1nccc2c(C)c3[nH]c4ccccc4c3cc12
- GI50 (P388): 1.77 µM (inactive)
- GI50 (P388/ADR): 2 µM (inactive)
- GI50 (SN12K1): 2.14 µM (inactive)

Compound: CCOC(=O)CSC1=C(C#N)C(c2sccc2C)CC(=O)N1 (configuration not stated)
- AC50 [6]: 0.722 µM (active)
- AC50 (Cytochrome P450 3A4 [11]): 15.8 µM (inconclusive)

Compound: COc1cc(-c2ccc3oc(-c4cccc(C)c4)c(C#CC4(O)CCCCC4)c3c2)cc(OC)c1OC
- AC50 [6]: 8.67 µM (active)

Compound: COc1ccc(NC(=O)Cn2nnc(-c3ccccc3NS(=O)(=O)c3ccccc3)n2)cc1
- AC50 [7]: 9.81 µM (active)
- AC50 [8]: 16.1 µM (active)
- AC50 [9]: 0.485 µM (active)
